Measured values published in DBAASP.
Values after ≈ are worked out from the molar mass of the structure shown.

Tests used:
Test in all cases: ≥ marks a high value that may be exact or a test limit, other limits are often not marked, values filed in µg/mL are converted to µM
[1] = system: Bacillus subtilis DSM 347
[2] = system: Escherichia coli DH5alpha
[3] = system: Franconibacter helveticus DSM 18396
[4] = system: Kocuria rhizophila DSM 348
[5] = system: Bacillus cereus ATCC 11778
[6] = system: Escherichia coli ATCC 35218
[7] = system: Pseudomonas aeruginosa ATCC 9027
[8] = system: Staphylococcus aureus ATCC 25923
[9] = system: Escherichia coli ATCC 25922
[10] = system: Xanthomonas axonopodis pv. glycines ISBF 327
Bacillus cereus AS1.126 = system: Bacillus cereus AS1.126
[11] = system: Enterococcus faecalis CGMCC 1.595
[12] = system: Enterococcus faecium CGMCC 1.2334
Escherichia coli AS1.349 = system: Escherichia coli AS1.349
[13] = system: Lactococcus lactis AS1.1690
[14] = system: Pseudomonas aeruginosa CGMCC 1.860
[15] = system: Staphylococcus aureus AS1.72
Alternaria alternata = system: Alternaria alternata
Botrytis cinerea = system: Botrytis cinerea
Cladosporium herbarum = system: Cladosporium herbarum
[16] = system: Clavibacter michiganensis subsp. michiganensis DSM 46294
[17] = system: Pectobacterium carotovorum subsp. carotovorum DSM 30168
[18] = system: Pseudomonas corrugata DSM 7228
[19] = system: Pseudomonas syringae pv. syringae DSM 10604
[20] = system: Pseudomonas syringae pv. tomato DC3000
[21] = system: Xanthomonas vesicatoria DSM 50861

## CC[C@H](C)[C@H](NC(=O)CN)C(=O)NCC(=O)N[C@@H](CCCCN)C(=O)N[C@@H](C)C(=O)N[C@@H](CC(C)C)C(=O)N[C@@H](Cc1cnc[nH]1)C(=O)N[C@@H](CO)C(=O)N[C@@H](C)C(=O)N[C@@H](CCCCN)C(=O)N[C@@H](CCCCN)C(=O)N[C@@H](Cc1ccccc1)C(=O)NCC(=O)N[C@@H](CCCCN)C(=O)N[C@@H](C)C(=O)N[C@@H](Cc1ccccc1)C(=O)N[C@H](C(=O)NCC(=O)N[C@@H](CCC(=O)O)C(=O)N[C@H](C(=O)N[C@@H](CCSC)C(=O)N[C@@H](CC(N)=O)C(=O)N[C@@H](CO)C(=O)O)[C@@H](C)CC)C(C)C [GIGKALHSAKKFGKAFVGEIMNS]
[1]
  MIC: ≥ 32 µM
[2]
  MIC: ≥ 128 µM
[3]
  MIC: ≥ 128 µM
[4]
  MIC: ≥ 256 µM

## CC[C@H](C)[C@H](NC(=O)CN)C(=O)NCC(=O)N[C@@H](CCCCN)C(=O)N[C@@H](Cc1ccccc1)C(=O)N[C@@H](CC(C)C)C(=O)N[C@@H](Cc1cnc[nH]1)C(=O)N[C@@H](CO)C(=O)N[C@@H](C)C(=O)N[C@@H](CCCCN)C(=O)N[C@@H](CCCCN)C(=O)N[C@@H](Cc1ccccc1)C(=O)N[C@@H](C)C(=O)N[C@@H](CCCCN)C(=O)N[C@@H](C)C(=O)N[C@@H](Cc1ccccc1)C(=O)N[C@H](C(=O)NCC(=O)N[C@@H](CCC(=O)O)C(=O)N[C@H](C(=O)N[C@@H](CCSC)C(=O)N[C@@H](CC(N)=O)C(=O)N[C@@H](CO)C(=O)O)[C@@H](C)CC)C(C)C [GIGKFLHSAKKFAKAFVGEIMNS]
[1]
  MIC: 1 µM (≈ 2.48 µg/mL)
[2]
  MIC: 16 µM (≈ 39.7 µg/mL)
[3]
  MIC: 4 µM (≈ 9.92 µg/mL)
[4]
  MIC: 8 µM (≈ 19.8 µg/mL)

## CC(C)C[C@H](NC(=O)[C@@H](NC(=O)[C@H](CCCCN)NC(=O)[C@@H](N)CCCCN)C(C)C)C(=O)N[C@@H](CCCCN)C(=O)N[C@@H](C)C(=O)N[C@@H](C)C(=O)N[C@@H](C)C(N)=O [KKVLKAAA]
[5]
  MIC: ≥ 50 µM
[6]
  MIC: ≥ 50 µM
[7]
  MIC: > 50 µM
[8]
  MIC: > 50 µM

## CC(C)C[C@H](NC(=O)[C@H](CCC(N)=O)NC(=O)[C@H](CCCN=C(N)N)NC(=O)[C@H](CC(C)C)NC(=O)[C@H](CC(C)C)NC(=O)[C@@H](NC(=O)[C@H](CC(C)C)NC(=O)[C@@H](NC(=O)[C@H](CCCN=C(N)N)NC(=O)[C@H](CCCN=C(N)N)NC(=O)[C@H](CCCCN)NC(=O)[C@H](C)NC(=O)[C@@H](N)CC(C)C)C(C)C)[C@@H](C)O)C(=O)N[C@@H](CCCN=C(N)N)C(=O)N[C@@H](CCCN=C(N)N)C(=O)N[C@H](C(=O)N[C@@H](CO)C(=O)N1CCC[C@H]1C(=O)N[C@@H](CO)C(=O)N[C@@H](CO)C(N)=O)C(C)C [LAKRRVLTLLRQLRRVSPSS]
[9]
  MIC: 14 µM (≈ 32.9 µg/mL)
[10]
  MIC: 2 µM (≈ 4.7 µg/mL)

## CC[C@H](C)[C@H](NC(=O)[C@H](C)NC(=O)[C@@H]1CCCN1C(=O)[C@H](CCCN=C(N)N)NC(=O)[C@@H](N)CC(C)C)C(=O)N[C@@H](CC(C)C)C(=O)N[C@H](C(=O)N[C@@H](CCCN=C(N)N)C(=O)N[C@H](C(=O)N[C@@H](CCCCN)C(=O)NCC(=O)N[C@@H](CCCCN)C(=O)NCC(=O)N[C@@H](CC(C)C)C(N)=O)C(C)C)C(C)C [LRPAILVRVKGKGL]
[10]
  MIC: ≥ 42 µM

## NC(N)=NCCC[C@H](NC(=O)[C@H](Cc1cnc[nH]1)NC(=O)[C@H](Cc1c[nH]c2ccccc12)NC(=O)[C@H](Cc1ccccc1)NC(=O)[C@H](CCCN=C(N)N)NC(=O)[C@H](CCCN=C(N)N)NC(=O)[C@H](Cc1c[nH]c2ccccc12)NC(=O)[C@H](Cc1cnc[nH]1)NC(=O)[C@@H](N)CCCN=C(N)N)C(=O)O [RHWRRFWHR]
Bacillus cereus AS1.126
  MIC: 6.25 µM (≈ 8.98 µg/mL)
[11]
  MIC: 3.13 µM (≈ 4.5 µg/mL)
[12]
  MIC: 6.25 µM (≈ 8.98 µg/mL)
Escherichia coli AS1.349
  MIC: 6.25 µM (≈ 8.98 µg/mL)
[13]
  MIC: 6.25 µM (≈ 8.98 µg/mL)
[14]
  MIC: 3.13 µM (≈ 4.5 µg/mL)
[15]
  MIC: 12.5 µM (≈ 18 µg/mL)

## CC(C)[C@H](NC(=O)[C@H](C)NC(=O)[C@H](CCCN=C(N)N)NC(=O)[C@H](CCCCN)NC(=O)[C@H](C)NC(=O)[C@H](Cc1ccccc1)NC(=O)[C@H](CCCN=C(N)N)NC(=O)[C@H](C)NC(=O)[C@H](Cc1ccccc1)NC(=O)[C@H](CCCN=C(N)N)NC(=O)[C@H](CCCCN)NC(=O)[C@@H](N)CCCN=C(N)N)C(N)=O [RKRFARFAKRAV]
Alternaria alternata
  MIC: ≥ 66.4 µM
Botrytis cinerea
  MIC: ≥ 66.4 µM
Cladosporium herbarum
  MIC: 26.6 µM (≈ 40 µg/mL)
[16]
  MIC: 13.3 µM (≈ 20 µg/mL)
[17]
  MIC: 26.6 µM (≈ 40 µg/mL)
[18]
  MIC: 26.6 µM (≈ 40 µg/mL)
[19]
  MIC: 26.6 µM (≈ 40 µg/mL)
[20]
  MIC: 3.32 µM (≈ 5 µg/mL)
[21]
  MIC: 26.6 µM (≈ 40 µg/mL)
